# Reference: publication PMC9839475 (Journal of acquired immune deficiency syndromes (1999), 2023)
# Like-named read-outs stand apart in the source and are kept apart here.
# Experiments:
# [1] = Cohort 1 intensive PK after a single 100 mg doravirine tablet; design: species or system adolescents with HIV-1; details: in vivo, po
# [2] = Cohort 2 week 1 intensive PK, DOR FDC once daily; format: in vivo, adolescents with HIV-1; details: for time at which Cmax occurred: Cohort 2, week 1, oral DOR/3TC/TDF, intensive PK
# [3] = Cohort 2 sparse PK weeks 4-24, DOR FDC once daily; format: in vivo, adolescents with HIV-1
# [4] = Cohort 1 safety through week 2; format: in vivo, adolescents with HIV-1
# [5] = adults taking 200mg daily; upper PK target of Cohort 1; cited from earlier work
# [6] = tested on: HIV-1; details: cited from earlier work
# [7] = tested on: CYP3A; details: cited from earlier work
# [8] = design: species or system adolescents with HIV-1; details: in vivo
# [9] = in vivo
compound,measurement,setting,value
Cn1c(Cn2ccc(C(F)(F)F)c(Oc3cc(Cl)cc(C#N)c3)c2=O)n[nH]c1=O [Doravirine],AUC(0-inf),[1]; human,34.8 µM·h
same,"Tmax, median (range)",[1]; human,3.78 (1.00–7.75) h
same,Vd/F,[1]; human,115 L
same,half-life,[1]; human,11.8 h
same,Tmax,"[1]; human, Tmax, median (range)",~4 h
same,"Cl/F, geometric mean (geometric CV%)",[1],6.75 (43) L/h
same,"Cl/F, geometric mean (geometric CV%)","[2]; Cohort 2, week 1, 100 mg daily as DOR FDC, n=10",10.3 (47) L/h
same,"C24,ss observed, geometric mean (geometric CV%)","[2]; Cohort 2, week 1, 100 mg daily as DOR FDC, n=10, 8/10 switched from efavirenz",282 (74) nM
same,Tmax,"[2]; human, plasma, oral",~2 h
same,Cmax,"[2]; human, plasma, po, 100 mg",2130 nM
same,Tmax,"[2]; human, plasma, po, 100 mg",1.95 h
same,geometric mean steady state doravirine concentrations,"[3]; Cohort 2, all participants, Week 4 through Week 24",> 560 nM
same,"DOR plasma concentration, geometric mean","[3]; Cohort 2, week 4, predose, N=45, DOR/3TC/TDF once daily",747 nM
same,"DOR plasma concentration, geometric mean","[3]; Cohort 2, week 8, random time, N=44, DOR/3TC/TDF once daily",1320 nM
same,"DOR plasma concentration, geometric mean","[3]; Cohort 2, week 12, random time, N=44, DOR/3TC/TDF once daily",2020 nM
same,"DOR plasma concentration, geometric mean","[3]; Cohort 2, week 24, 0.5–2 hours post dose, N=43, DOR/3TC/TDF once daily",1870 nM
same,"DOR plasma concentration, geometric mean","[3]; Cohort 2, week 24, predose, N=43, DOR/3TC/TDF once daily",1090 nM
same,participants who died due to adverse event,"[4]; Cohort 1, N=9, 100mg single dose, through week 2",0 (0) n (%)
same,Grade 3 or 4 adverse events,"[4]; human, in vivo, 2 weeks",no Grade 3 or 4 adverse events
same,participants with at least one Grade 1 or Grade 2 adverse event,"[4]; human, in vivo, 2 weeks",44.4%
same,tolerability,[4]; in vivo,well tolerated
same,geometric AUC0–24hr at steady-state,[5],64 µM·h
same,lipid levels compared to darunavir/ritonavir,[6],significantly improved lipid levels
same,discontinuations due to adverse events,"[6]; week 48, doravirine plus 2 NRTIs, adults naïve to antiretroviral therapy",< 1%
same,virologic response versus darunavir/ritonavir,"[6]; week 48, plus 2 NRTIs",not inferior
O=C1Nc2ccc(Cl)cc2[C@@](C#CC2CC2)(C(F)(F)F)O1 [efavirenz],CYP3A induction,[7],moderate CYP3A inducer
C[C@H](Cn1cnc2c(N)ncnc21)OCP(=O)(O)O [tenofovir],time at which Cmax occurred,[2],approximately 1 hour
Nc1ccn([C@@H]2CS[C@H](CO)O2)c(=O)n1 [lamivudine],time at which Cmax occurred,[2],~2 h
doravirine/lamivudine/tenofovir disoproxil fumarate [DOR FDC],"Alanine Aminotransferase, mean change [95% CI]",[8],"1.2 [−7.3, 9.6] IU/L"
same,"Alkaline Phosphatase, mean change [95% CI]",[8],"−20.7 [−35.1, −6.3] IU/L"
same,"Aspartate Aminotransferase, mean change [95% CI]",[8],"0.8 [−5.1, 6.7] IU/L"
same,"Bilirubin, mean change [95% CI]",[8],"−0.0 [−0.2, 0.1] mg/dL"
same,"Creatinine, mean change [95% CI]",[8],"0.0 [0.0, 0.1] mg/dL"
same,"HDL Cholesterol, mean change [95% CI]",[8],"−11.3 [−15.9, −6.6] mg/dL"
same,"LDL Cholesterol, mean change [95% CI]",[8],"−12.5 [−20.7, −4.2] mg/dL"
same,"eGFR from Creatinine Adjusted for BSA, mean change [95% CI]",[8],"−6.5 [−15.2, 2.2] mL/min/1.73m^2"
same,grade 3 diarrhea and gastroenteritis,[9],one participant
same,grade 3 increased ALT,[9],one participant
same,participants meeting safety endpoint eGFR <60 ml/min/1.73m^2,[9],No participant
same,participants who experienced at least one adverse event,[9],45 participants
same,participants with Grade 1 dizziness assessed as related to the study drug,[9],2.2%
same,participants with concomitant grade 3 increased creatinine,[9],2
same,participants with grade 3 decreased eGFR,[9],Three participants
same,participants with no adverse events,[9],0 (0) n (%)
same,participants with one or more Grade 3 or greater adverse events,[9],9 (20.0) n (%)
same,participants with one or more Grade 3 or greater drug-related adverse events,[9],0 (0) n (%)
same,participants with one or more adverse events,[9],45 (100.0) n (%)
same,participants with one or more drug-related adverse events,[9],1 (2.2) n (%)
same,participants with one or more grade 3 adverse events,[9],20%
same,participants with one or more serious adverse events,[9],1 (2.2) n (%)
same,participants with one or more serious drug-related adverse events,[9],0 (0) n (%)
same,tolerability,[9],well tolerated
